{"source": "paper PMC4699737", "about": "“TrpA1 Regulates Defecation of Food-Borne Pathogens under the Control of the Duox Pathway” (PLoS Genetics, 2016)", "assay_in_all_cases": "two-electrode voltage clamp, Xenopus oocytes, Hill fit", "format_in_all_cases": "cell-based", "settings_in_all_cases": "agonist (activation); -60 mV, pH 7.6; currents normalized to 100 ppm NaOCl, steady state", "key": {"[1]": {"molecular_target": "T1, TRPA1(B)10a (Drosophila melanogaster, UniProt Q7Z020)", "T1 construct": "full-length splice isoform, TrpA1 cRNA injected in Xenopus laevis oocytes", "T1 sequence (Q7Z020 1-1197)": "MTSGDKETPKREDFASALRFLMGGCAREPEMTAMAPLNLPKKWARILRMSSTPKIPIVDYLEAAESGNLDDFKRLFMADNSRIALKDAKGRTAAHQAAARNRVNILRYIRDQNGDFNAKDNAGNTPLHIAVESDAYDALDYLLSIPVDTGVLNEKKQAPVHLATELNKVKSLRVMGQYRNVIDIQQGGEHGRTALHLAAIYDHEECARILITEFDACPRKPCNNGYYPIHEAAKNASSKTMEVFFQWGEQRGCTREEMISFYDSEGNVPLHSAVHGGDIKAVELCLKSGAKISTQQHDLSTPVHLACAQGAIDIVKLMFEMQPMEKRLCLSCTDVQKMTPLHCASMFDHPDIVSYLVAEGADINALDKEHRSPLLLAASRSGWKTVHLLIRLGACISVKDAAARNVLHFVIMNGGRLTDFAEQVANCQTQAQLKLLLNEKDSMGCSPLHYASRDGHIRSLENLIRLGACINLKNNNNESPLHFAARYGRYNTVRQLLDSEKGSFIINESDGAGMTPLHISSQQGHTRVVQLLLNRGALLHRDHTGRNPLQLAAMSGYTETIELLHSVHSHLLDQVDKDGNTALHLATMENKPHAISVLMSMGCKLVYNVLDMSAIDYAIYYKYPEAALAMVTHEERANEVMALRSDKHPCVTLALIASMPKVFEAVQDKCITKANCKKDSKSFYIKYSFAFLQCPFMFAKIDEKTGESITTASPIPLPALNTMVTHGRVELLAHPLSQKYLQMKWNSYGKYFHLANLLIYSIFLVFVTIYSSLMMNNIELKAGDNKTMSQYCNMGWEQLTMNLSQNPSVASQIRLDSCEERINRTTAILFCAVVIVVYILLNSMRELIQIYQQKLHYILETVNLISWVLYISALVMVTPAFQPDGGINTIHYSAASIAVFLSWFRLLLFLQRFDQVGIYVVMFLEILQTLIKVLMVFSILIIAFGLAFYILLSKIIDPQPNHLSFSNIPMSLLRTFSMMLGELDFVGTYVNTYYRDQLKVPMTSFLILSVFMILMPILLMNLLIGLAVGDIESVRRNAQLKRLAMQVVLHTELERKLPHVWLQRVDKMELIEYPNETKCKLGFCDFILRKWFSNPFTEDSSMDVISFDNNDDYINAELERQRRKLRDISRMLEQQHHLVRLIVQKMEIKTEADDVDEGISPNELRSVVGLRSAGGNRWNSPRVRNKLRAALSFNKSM"}, "[2]": {"molecular_target": "T2, TRPA1(A)10b (Drosophila melanogaster, UniProt H0USS9)", "T2 construct": "full-length splice isoform, TrpA1 cRNA injected in Xenopus laevis oocytes", "T2 sequence (H0USS9 1-1231)": "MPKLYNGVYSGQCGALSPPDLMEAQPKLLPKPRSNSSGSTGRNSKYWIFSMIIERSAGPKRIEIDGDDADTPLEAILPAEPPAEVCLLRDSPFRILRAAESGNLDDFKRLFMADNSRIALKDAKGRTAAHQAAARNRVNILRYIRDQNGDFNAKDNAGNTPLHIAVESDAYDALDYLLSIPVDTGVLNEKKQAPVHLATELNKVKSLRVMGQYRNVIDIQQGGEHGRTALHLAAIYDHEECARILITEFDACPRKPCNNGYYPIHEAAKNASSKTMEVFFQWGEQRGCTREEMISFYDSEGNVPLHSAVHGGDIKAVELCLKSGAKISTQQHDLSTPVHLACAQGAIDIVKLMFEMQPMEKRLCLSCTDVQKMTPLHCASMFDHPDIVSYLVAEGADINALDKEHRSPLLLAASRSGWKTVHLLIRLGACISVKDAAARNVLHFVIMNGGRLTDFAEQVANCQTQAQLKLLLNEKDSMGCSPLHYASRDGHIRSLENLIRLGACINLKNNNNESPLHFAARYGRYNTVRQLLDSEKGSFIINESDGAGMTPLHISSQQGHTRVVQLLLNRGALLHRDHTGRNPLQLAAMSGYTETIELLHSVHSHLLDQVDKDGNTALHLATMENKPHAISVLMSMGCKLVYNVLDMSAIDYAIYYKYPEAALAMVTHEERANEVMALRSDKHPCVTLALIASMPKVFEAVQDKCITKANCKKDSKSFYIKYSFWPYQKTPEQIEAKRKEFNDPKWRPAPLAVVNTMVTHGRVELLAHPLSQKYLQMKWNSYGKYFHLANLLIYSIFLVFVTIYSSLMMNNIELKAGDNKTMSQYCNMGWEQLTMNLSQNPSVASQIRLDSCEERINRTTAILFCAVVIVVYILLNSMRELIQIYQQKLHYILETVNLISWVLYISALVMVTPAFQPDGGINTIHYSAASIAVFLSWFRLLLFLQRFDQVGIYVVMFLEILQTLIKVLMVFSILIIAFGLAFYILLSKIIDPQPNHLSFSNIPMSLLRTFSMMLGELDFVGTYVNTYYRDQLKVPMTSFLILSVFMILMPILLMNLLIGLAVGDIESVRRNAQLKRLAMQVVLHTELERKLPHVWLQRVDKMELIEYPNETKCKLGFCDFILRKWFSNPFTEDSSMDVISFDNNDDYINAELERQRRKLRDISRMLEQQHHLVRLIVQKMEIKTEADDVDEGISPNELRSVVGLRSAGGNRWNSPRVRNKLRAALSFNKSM", "text": "two-electrode voltage clamp, Xenopus oocytes, Hill fit on TRPA1(A)10b | The data were fitted to Hill equation to determine EC50s"}, "[3]": {"molecular_target": "T3, hsTRPA1 (Homo sapiens, UniProt O75762)", "T3 construct": "gene TRPA1; full-length, cRNA injected in Xenopus laevis oocytes", "T3 sequence (O75762 whole entry)": "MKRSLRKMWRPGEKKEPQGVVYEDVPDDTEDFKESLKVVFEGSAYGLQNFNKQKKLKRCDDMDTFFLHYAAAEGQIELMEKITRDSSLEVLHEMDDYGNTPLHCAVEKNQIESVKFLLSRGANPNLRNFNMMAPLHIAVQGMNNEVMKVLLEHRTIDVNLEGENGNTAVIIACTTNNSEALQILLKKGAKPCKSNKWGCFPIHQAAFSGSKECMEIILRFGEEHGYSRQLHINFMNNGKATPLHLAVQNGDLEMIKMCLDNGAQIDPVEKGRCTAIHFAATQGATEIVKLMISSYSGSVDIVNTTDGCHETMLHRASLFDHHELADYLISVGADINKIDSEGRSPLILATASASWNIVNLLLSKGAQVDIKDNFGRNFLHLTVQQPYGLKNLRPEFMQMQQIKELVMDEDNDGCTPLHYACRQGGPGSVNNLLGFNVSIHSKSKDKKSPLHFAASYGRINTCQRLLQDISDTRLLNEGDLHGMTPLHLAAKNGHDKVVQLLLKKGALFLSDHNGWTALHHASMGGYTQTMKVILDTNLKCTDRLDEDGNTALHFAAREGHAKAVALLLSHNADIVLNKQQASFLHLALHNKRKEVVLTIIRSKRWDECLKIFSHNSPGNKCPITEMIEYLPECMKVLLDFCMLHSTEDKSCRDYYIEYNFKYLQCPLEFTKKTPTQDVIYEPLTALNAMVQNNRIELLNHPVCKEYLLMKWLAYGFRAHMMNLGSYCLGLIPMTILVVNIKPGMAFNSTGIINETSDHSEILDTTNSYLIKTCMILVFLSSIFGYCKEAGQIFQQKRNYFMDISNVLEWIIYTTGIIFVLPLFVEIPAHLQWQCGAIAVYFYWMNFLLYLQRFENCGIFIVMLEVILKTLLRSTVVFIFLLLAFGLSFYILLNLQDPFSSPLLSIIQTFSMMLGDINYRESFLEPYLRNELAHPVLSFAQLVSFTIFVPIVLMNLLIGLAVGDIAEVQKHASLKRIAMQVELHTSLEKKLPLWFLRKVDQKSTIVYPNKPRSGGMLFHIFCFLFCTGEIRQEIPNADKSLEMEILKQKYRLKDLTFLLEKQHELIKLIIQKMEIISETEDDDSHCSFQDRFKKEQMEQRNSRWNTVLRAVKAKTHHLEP"}, "[4]": {"molecular_target": "T4, TRPA1(A)10a (Drosophila melanogaster, UniProt G8IQ59)", "T4 construct": "full-length splice isoform, TrpA1 cRNA injected in Xenopus laevis oocytes", "T4 sequence (G8IQ59 1-1232)": "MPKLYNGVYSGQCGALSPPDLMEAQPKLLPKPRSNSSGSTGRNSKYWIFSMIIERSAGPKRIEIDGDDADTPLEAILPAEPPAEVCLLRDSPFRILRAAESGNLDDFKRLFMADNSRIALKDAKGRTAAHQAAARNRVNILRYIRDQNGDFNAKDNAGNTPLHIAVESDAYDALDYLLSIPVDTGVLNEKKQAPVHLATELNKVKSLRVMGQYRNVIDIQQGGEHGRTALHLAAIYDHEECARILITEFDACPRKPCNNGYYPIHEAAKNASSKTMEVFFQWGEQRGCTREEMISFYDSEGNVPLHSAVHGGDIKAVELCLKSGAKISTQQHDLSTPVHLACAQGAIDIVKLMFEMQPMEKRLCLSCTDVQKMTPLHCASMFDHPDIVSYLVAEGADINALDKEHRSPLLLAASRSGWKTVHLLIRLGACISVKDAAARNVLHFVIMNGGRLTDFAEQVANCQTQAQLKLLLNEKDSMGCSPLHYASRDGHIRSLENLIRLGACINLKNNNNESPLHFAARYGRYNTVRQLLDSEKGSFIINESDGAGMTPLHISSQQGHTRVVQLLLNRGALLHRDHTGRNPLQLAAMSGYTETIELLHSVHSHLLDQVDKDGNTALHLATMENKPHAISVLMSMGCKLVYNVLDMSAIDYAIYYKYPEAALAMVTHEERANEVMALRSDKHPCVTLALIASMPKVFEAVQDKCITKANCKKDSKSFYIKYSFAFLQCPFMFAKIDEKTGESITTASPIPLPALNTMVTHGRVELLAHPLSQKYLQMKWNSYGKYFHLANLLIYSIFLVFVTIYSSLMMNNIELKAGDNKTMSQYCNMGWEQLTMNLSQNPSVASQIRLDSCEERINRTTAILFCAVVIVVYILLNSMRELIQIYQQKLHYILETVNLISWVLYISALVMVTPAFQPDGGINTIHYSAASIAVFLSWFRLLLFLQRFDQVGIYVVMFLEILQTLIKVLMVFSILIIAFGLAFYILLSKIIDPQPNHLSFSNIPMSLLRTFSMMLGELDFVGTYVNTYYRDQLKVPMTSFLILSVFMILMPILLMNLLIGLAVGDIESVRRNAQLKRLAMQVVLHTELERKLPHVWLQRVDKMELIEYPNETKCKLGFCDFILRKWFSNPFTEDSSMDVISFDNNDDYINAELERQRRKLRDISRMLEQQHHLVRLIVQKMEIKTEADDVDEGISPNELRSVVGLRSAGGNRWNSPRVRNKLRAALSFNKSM"}}, "data": [{"smiles": "OCl", "note": "[NaOCl]", "values": [{"measurement": "EC50", "setting": "[1]", "result": "13.2±1.0", "unit": "ppm"}, {"measurement": "EC50", "setting": "[2]", "result": "1.7±0.7", "unit": "ppm"}, {"measurement": "EC50", "setting": "[3]", "result": "21.1±3.6", "unit": "ppm"}, {"measurement": "EC50", "setting": "[4]", "result": "5.7±0.6", "unit": "ppm"}]}]}
